As usually defined, the inhibition is the change of the read-out against control, counted positive when it falls. The term melting point denotes the temperature, or range, at which the solid turns liquid.

One data set has as its target P110 δ/Pi3K δ (Homo sapiens, UniProt O00329). Description: Fluorescent (HTRF) determination of PI3K enzyme activity, δ isoform. More on the design: inhibition: dose or concentration left out as unconfirmed. The format is biochemical. From the text:
Assay 1: Fluorescent determination of PI3Kinase Kinase enzyme activity
Phosphoinositide 3 kinases (PI3K) belong to a class of lipid kinases that play a critical role in the regulation of several key cellular processes. The PI3K are capable of phosphorylating the 3-hydroxy position of phosphoinositols thereby generating second messengers involved in downstream signalling events. The homogenous time resolved fluorescence (HTRF) assay allows detection of 3,4,5-triphosphate (PIP3) formed as a result of phosphorylation of phosphotidylinositol 4,5-biphosphate (PIP2) by PI3K isoforms such as α, β, γ or δ.
PI3K isoform activity for α, β, γ or δ was determined using a PI3K human HTRF™ Assay Kit (Millipore, Billerica, Mass.) with modifications. All incubations were carried out at room temperature. […] After the initial incubation, 5 μl/well of 400 μM ATP was added and incubated for an additional 30 minutes. Reaction was terminated by adding 5 μl/well stop solution (Millipore, Billerica, Mass.). Five microliters of detection mix (Millipore, Billerica, Mass.) were then added to each well and was incubated for 6-18 h in the dark. […] Data were analyzed using Graphpad Prism (Graphpad software; San Diego Calif.) for IC50 determination. Percent inhibition was calculated based on the values for the blank and enzyme controls.
(In general: Time-resolved FRET reads energy transfer from a long-lived donor to a nearby acceptor.)

Molecules are shown by their SMILES. Read-outs that look alike come from different tables or passages of the source. Some results are limits rather than exact numbers.

P110 δ/Pi3K δ, sequence (O00329 whole entry, canonical isoform): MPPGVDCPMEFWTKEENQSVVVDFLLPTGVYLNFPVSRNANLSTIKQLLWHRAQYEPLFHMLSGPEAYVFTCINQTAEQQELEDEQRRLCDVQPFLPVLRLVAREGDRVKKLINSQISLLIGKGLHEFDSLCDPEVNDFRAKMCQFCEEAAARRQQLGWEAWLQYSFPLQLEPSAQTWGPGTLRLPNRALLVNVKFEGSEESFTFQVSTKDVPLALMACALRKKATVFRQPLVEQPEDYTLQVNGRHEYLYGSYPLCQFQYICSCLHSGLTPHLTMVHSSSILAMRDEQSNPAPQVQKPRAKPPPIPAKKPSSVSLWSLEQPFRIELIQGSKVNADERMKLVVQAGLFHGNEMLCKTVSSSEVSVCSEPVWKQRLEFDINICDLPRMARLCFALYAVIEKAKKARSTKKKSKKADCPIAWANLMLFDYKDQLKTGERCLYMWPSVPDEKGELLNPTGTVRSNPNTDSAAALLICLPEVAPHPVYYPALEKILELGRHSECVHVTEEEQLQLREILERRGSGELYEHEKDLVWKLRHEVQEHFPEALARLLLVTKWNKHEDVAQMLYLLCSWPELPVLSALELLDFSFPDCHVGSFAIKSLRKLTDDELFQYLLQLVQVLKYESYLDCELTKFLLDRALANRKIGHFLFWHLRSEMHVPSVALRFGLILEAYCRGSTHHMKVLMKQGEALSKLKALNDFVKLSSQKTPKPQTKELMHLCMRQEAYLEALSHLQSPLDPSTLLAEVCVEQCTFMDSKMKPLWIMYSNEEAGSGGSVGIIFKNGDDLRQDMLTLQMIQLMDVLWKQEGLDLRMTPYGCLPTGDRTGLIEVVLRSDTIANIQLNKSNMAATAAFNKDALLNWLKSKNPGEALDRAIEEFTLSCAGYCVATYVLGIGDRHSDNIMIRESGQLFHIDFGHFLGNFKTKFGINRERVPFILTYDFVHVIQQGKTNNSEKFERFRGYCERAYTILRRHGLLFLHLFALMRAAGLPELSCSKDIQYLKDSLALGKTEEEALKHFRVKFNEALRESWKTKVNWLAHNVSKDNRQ
P110 δ/Pi3K δ, sequence (P27986 whole entry partner, canonical isoform): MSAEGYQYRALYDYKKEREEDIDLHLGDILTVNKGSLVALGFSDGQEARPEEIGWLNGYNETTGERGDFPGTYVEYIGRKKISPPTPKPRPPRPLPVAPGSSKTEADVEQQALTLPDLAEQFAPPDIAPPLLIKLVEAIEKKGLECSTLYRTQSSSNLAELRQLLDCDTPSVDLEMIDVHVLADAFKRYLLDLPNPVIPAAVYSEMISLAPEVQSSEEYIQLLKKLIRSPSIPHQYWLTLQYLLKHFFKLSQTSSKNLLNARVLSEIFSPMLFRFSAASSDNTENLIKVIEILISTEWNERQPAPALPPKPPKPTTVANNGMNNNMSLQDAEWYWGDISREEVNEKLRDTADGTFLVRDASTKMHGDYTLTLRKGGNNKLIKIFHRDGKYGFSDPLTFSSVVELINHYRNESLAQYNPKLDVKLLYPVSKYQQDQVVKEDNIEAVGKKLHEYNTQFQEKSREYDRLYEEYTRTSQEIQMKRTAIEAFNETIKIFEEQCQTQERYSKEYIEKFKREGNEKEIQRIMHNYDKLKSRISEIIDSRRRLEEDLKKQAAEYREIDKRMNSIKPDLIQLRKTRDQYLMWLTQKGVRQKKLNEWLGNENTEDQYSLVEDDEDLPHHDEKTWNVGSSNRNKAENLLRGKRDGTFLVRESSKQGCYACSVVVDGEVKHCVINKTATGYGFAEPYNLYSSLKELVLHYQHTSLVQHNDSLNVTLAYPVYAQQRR

The compound `CC(c1oc2ccccc2c(=O)c1-c1cccc(F)c1)n1ncc2c(Cl)ccnc21` (stereo not drawn) [Example 167, 2-(1-(4-Chloro-1H-pyrazolo[3,4-b]pyridin-1-yl)ethyl)-3-(3-fluorophenyl)-4H-chromen-4-one] yielded a melting point of 173 to 176 °C. The compound also had an inhibition on P110 δ/Pi3K δ of less than 50%.

As for `CC(c1oc2ccccc2c(=O)c1-c1cccc(F)c1)n1nc(-c2cn[nH]c2)c2c(N)ncnc21` (stereo not drawn) [Example 72, 2-(1-(4-amino-3-(1H-pyrazol-4-yl)-1H-pyrazolo[3,4-d]pyrimidin-1-yl)ethyl)-3-(3-fluorophenyl)-4H-chromen-4-one], the melting point lay in the range of 223 to 226 °C. For the same compound, the inhibition at 1 µM against P110 δ/Pi3K δ was 50 to 100%. Also, the IC50 on P110 δ/Pi3K δ (read-out: P110 δ/Pi3K δ IC 50 nM) was less than 250 nM.

`Nc1ncnc2c1ncn2Cc1oc2ccccc2c(=O)c1-c1ccccc1` [Example 3, 2-[(6-Amino-9H-purin-9-yl)methyl]-3-phenyl-4H-chromen-4-one]: the melting point lay in the range of 173 to 175 °C. This compound also gave an inhibition at 1 µM at P110 δ/Pi3K δ of less than 50%.

Compound `CC(c1oc2ccccc2c(=O)c1-c1ccccc1)n1nc(-c2ccc3cn[nH]c3c2)c2c(N)ncnc21` (stereo not drawn) [Example 70, 2-(1-(4-amino-3-(1H-indazol-6-yl)-1H-pyrazolo[3,4-d]pyrimidin-1-yl)ethyl)-3-phenyl-4H-chromen-4-one] yielded a melting point of 176 to 178 °C. This compound also came in with an inhibition at 1 µM at P110 δ/Pi3K δ of 50 to 100%.

`Nc1ncnc2c1c(-c1cccnc1)nn2Cc1oc2ccccc2c(=O)c1-c1ccccc1` [Example 58, 2-((4-amino-3-(pyridin-3-yl)-1H-pyrazolo[3,4-d]pyrimidin-1-yl)methyl)-3-phenyl-4H-chromen-4-one] returned a melting point of 253 to 255 °C. The compound further showed an inhibition at 1 µM against P110 δ/Pi3K δ of less than 50%.

As for `Nc1ncnc2c1c(-c1cc(F)c(O)c(F)c1)nn2Cc1oc2ccc(F)cc2c(=O)c1-c1cccc(F)c1` [Example 127a, 2-((4-amino-3-(3,5-difluoro-4-hydroxyphenyl)-1H-pyrazolo[3,4-d]pyrimidin-1-yl)methyl)-6-fluoro-3-(3-fluorophenyl)-4H-chromen-4-one], the melting point lay in the range of 274 to 278 °C. Also, the inhibition against P110 δ/Pi3K δ was less than 50%.

In turn, `CC(c1oc2ccccc2c(=O)c1-c1cccc(F)c1)n1nc(-c2ccc(Cl)c(O)c2)c2c(N)ncnc21` (stereo not drawn) [Example 95a, 2-(1-(4-amino-3-(4-chloro-3-hydroxyphenyl)-1H-pyrazolo[3,4-d]pyrimidin-1-yl)ethyl)-3-(3-fluorophenyl)-4H-chromen-4-one] came in with a melting point of 134 to 136 °C. At P110 δ/Pi3K δ, this compound registered an inhibition of 50 to 100%. Moreover, the IC50 on P110 δ/Pi3K δ (read-out: P110 δ/ Pi3K δ IC 50 nM) is less than 250 nM.

With `O=c1c(-c2ccccc2)c(Cn2cnc3c(Cl)ncnc32)oc2ccccc12` [Example 9, 2-[(6-Chloro-9H-purin-9-yl)methyl]-3-phenyl-4H-chromen-4-one], the melting point is 187 to 190 °C. This compound had an inhibition at 1 µM on P110 δ/Pi3K δ of less than 50%.

`O=c1c(-c2ccccc2F)c(CNc2ncnc3[nH]cnc23)oc2ccccc12` [Example 45, 2-((9H-purin-6-ylamino)methyl)-3-(2-fluorophenyl)-4H-chromen-4-one] gave a melting point of 143 to 147 °C. The inhibition at 1 µM at P110 δ/Pi3K δ was less than 50%.

With `COc1ccc2oc(Cn3cnc4c(N)ncnc43)c(-c3ccccc3)c(=O)c2c1` [Example 27, 2-((6-Amino-9H-purin-9-yl)methyl)-6-methoxy-3-phenyl-4H-chromen-4-one], the melting point is 197 to 198 °C. At P110 δ/Pi3K δ, this compound registered an inhibition at 1 µM of less than 50%.

With `CC(=O)Nc1cccc(-c2nn(Cc3oc4ccccc4c(=O)c3-c3ccccc3)c3ncnc(N)c23)c1` [Example 65, N-(3-(4-amino-1-((4-oxo-3-phenyl-4H-chromen-2-yl)methyl)-1H-pyrazolo[3,4-d]pyrimidin-3-yl)phenyl)acetamide], the melting point fell in the range of 122 to 123 °C. This compound returned an inhibition at 1 µM on P110 δ/Pi3K δ of less than 50%.

`CC(c1oc2ccccc2c(=O)c1-c1cccc(F)c1)n1nc(-c2ccc(F)nc2)c2c(N)ncnc21` (stereo not drawn) [Example 159, 2-(1-(4-amino-3-(6-fluoropyridin-3-yl)-1H-pyrazolo[3,4-d]pyrimidin-1-yl)ethyl)-3-(3-fluorophenyl)-4H-chromen-4-one] had a melting point of 203 to 206 °C. Besides, the inhibition against P110 δ/Pi3K δ is less than 50%.

With `CC(c1oc2ccccc2c(=O)c1-c1cccc(F)c1)n1nc(-c2ccc3cn[nH]c3c2)c2c(N)ncnc21` (stereo not drawn) [Example 80, 2-(1-(4-amino-3-(1H-indazol-6-yl)-1H-pyrazolo[3,4-d]pyrimidin-1-yl)ethyl)-3-(3-fluorophenyl)-4H-chromen-4-one], the melting point lay within 206 to 208 °C. On P110 δ/Pi3K δ, this compound came in with an inhibition of less than 50%.

In the case of `O=c1c(-c2ccccc2)c(CNc2ncnc3[nH]cnc23)oc2ccccc12` [Example 43, 2-((9H-purin-6-ylamino)methyl)-3-phenyl-4H-chromen-4-one], the melting point was in the range of 155 to 158 °C. On P110 δ/Pi3K δ, this compound yielded an inhibition at 1 µM of less than 50%.

As for `CC(c1oc2ccccc2c(=O)c1-c1ccccc1)n1ncc2c(N)ncnc21` (stereo not drawn) [Example 30, 2-(1-(4-Amino-1H-pyrazolo[3,4-d]pyrimidin-1-yl)ethyl)-3-phenyl-4H-chromen-4-one], the melting point lay in the range of 226 to 227 °C. In addition, the inhibition at 1 µM against P110 δ/Pi3K δ was less than 50%.

In the case of `CC(c1oc2ccccc2c(=O)c1-c1cccc(F)c1)n1nc(-c2cccc(OC(F)(F)F)c2)c2c(N)ncnc21` (stereo not drawn) [Example 87, 2-(1-(4-amino-3-(3-(trifluoromethoxy)phenyl)-1H-pyrazolo[3,4-d]pyrimidin-1-yl)ethyl)-3-(3-fluorophenyl)-4H-chromen-4-one], the melting point is 155 to 157 °C. On P110 δ/Pi3K δ, the inhibition was in the range of 50 to 100%.

Compound `CC(c1oc2ccccc2c(=O)c1-c1cccc(F)c1)n1nc(-c2cccc3[nH]ncc23)c2c(N)ncnc21` (stereo not drawn) [Example 77, 2-(1-(4-amino-3-(1H-indazol-4-yl)-1H-pyrazolo[3,4-d]pyrimidin-1-yl)ethyl)-3-(3-fluorophenyl)-4H-chromen-4-one] had a melting point of 231 to 233 °C. In addition, at P110 δ/Pi3K δ, the inhibition at 1 µM was 50 to 100%.

`CCC(c1oc2ccccc2c(=O)c1-c1ccc(F)cc1)n1cnc2c(N)ncnc21` (stereo not drawn) [Example 37, 2-(1-(6-Amino-9H-purin-9-yl)propyl)-3-(4-fluorophenyl)-4H-chromen-4-one] showed a melting point of 223 to 227 °C. In addition, the inhibition at 1 µM against P110 δ/Pi3K δ was less than 50%.

`CC(c1oc2ccccc2c(=O)c1-c1ccccc1)n1nc(-c2cn[nH]c2)c2c(N)ncnc21` (stereo not drawn) [Example 69, 2-(1-(4-amino-3-(1H-pyrazol-4-yl)-1H-pyrazolo[3,4-d]pyrimidin-1-yl)ethyl)-3-phenyl-4H-chromen-4-one]: the melting point lay in the range of 214 to 217 °C. Besides, on P110 δ/Pi3K δ, the inhibition at 1 µM lay in the range of 50 to 100%.

As for `CC(c1oc2ccccc2c(=O)c1-c1cccc(F)c1)n1nc(-c2ccc(C=O)o2)c2c(N)ncnc21` (stereo not drawn) [Example 179, 5-(4-amino-1-(1-(3-(3-fluorophenyl)-4-oxo-4H-chromen-2-yl)ethyl)-1H-pyrazolo[3,4-d]pyrimidin-3-yl)furan-2-carbaldehyde], the melting point was 215 to 217 °C. On P110 δ/Pi3K δ, this compound came in with an inhibition of 50 to 100%.

Compound `COCc1cccc(-c2nn(C(C)c3oc4ccccc4c(=O)c3-c3cccc(F)c3)c3ncnc(N)c23)c1` (stereo not drawn) [Example 161, 2-(1-(4-amino-3-(3-(methoxymethyl)phenyl)-1H-pyrazolo[3,4-d]pyrimidin-1-yl)ethyl)-3-(3-fluorophenyl)-4H-chromen-4-one] gave a melting point of 167 to 170 °C. Also, at P110 δ/Pi3K δ, the inhibition is less than 50%.

For `Cc1c[nH]c2ccc(-c3nn(C(C)c4oc5ccccc5c(=O)c4-c4cccc(F)c4)c4ncnc(N)c34)cc12` (stereo not drawn) [Example 101, 2-(1-(4-Amino-3-(3-methyl-1H-indol-5-yl)-1H-pyrazolo[3,4-d]pyrimidin-1-yl)ethyl)-3-(3-fluorophenyl)-4H-chromen-4-one], the melting point is 171 to 173 °C. At P110 δ/Pi3K δ, this compound registered an inhibition of less than 50%.

In turn, `CC(c1oc2ccccc2c(=O)c1-c1cccc(F)c1)n1nc(-c2cc(O)cc(Cl)c2)c2c(N)ncnc21` (stereo not drawn) [Example 86a, 2-(1-(4-amino-3-(3-chloro-5-hydroxyphenyl)-1H-pyrazolo[3,4-d]pyrimidin-1-yl)ethyl)-3-(3-fluorophenyl)-4H-chromen-4-one] gave a melting point of 122 to 124 °C. Further, the inhibition on P110 δ/Pi3K δ lay within 50 to 100%.

Regarding `CC(C)Oc1cccc(-c2nn(C(C)c3oc4ccccc4c(=O)c3-c3cccc(F)c3)c3ncnc(N)c23)c1` (stereo not drawn) [Example 163, 2-(1-(4-amino-3-(3-isopropoxyphenyl)-1H-pyrazolo[3,4-d]pyrimidin-1-yl)ethyl)-3-(3-fluorophenyl)-4H-chromen-4-one], the melting point lay in the range of 153 to 157 °C. The compound also gave an inhibition against P110 δ/Pi3K δ of less than 50%.

For `CC(c1oc2ccccc2c(=O)c1-c1cccc(F)c1)n1ncc2c(Cl)ncnc21` (stereo not drawn) [Example 168, 2-(1-(4-Chloro-1H-pyrazolo[3,4-d]pyrimidin-1-yl)ethyl)-3-(3-fluorophenyl)-4H-chromen-4-one], the melting point fell in the range of 197 to 201 °C. In addition, the inhibition at P110 δ/Pi3K δ is less than 50%.

As to `CC(c1oc2ccccc2c(=O)c1-c1cccc(F)c1)n1nc(-c2ccc(O)cc2)c2c(N)ncnc21` (stereo not drawn) [Example 88a, 2-(1-(4-amino-3-(4-hydroxyphenyl)-1H-pyrazolo[3,4-d]pyrimidin-1-yl)ethyl)-3-(3-fluorophenyl)-4H-chromen-4-one], the melting point is 244 to 247 °C. Also, the inhibition against P110 δ/Pi3K δ was in the range of 50 to 100%.

Source of the values: US9421209B2, “Kinase modulators” (Rhizen Pharmaceuticals SA, priority 2009, dated 2016).
